We go through 16 molecules from patent US8084645B2, “4-phenylamino-benzaldoxime derivatives and uses thereof as mitogen-activated protein kinase kinase (MEK) inhibitors” (Chugai Seiyaku Kabushiki Kaisha, priority 2003, dated 2011).

A short description of data set [1]: Determination of stability against human liver microsomes. Format: in vitro ADME. Particulars: human liver microsomes 1 mg protein/mL, 2 mM NADPH, pH 7.4, 37 C; read-out: Stability against human liver microsome NADPH+ T1/2. As for the experimental part: The enzyme reaction was quenched with three volumes of acetonitrile, and the reaction mixture was centrifuged at 1,500 rpm for ten minutes to provide a supernatant as a sample to be measured. Stability against human liver microsomes was measured using HPLC/MS to determine the compounds in the sample.
(In general: Liver microsomes are vesicles of endoplasmic reticulum, rich in cytochrome P450 enzymes.)

Data set [2] is described as follows: Determination of stability against mouse liver microsomes. Particulars: mouse liver microsomes 1 mg protein/mL, 2 mM NADPH, pH 7.4, 37 C; read-out: Stability against mouse liver microsome NADPH+ T1/2. Format: in vitro ADME. Here is the method:
The enzyme reaction was quenched with three volumes of acetonitrile, and the reaction mixture was centrifuged at 1,500 rpm for ten minutes to provide a supernatant as a sample to be measured. Stability against mouse liver microsomes was measured using HPLC/MS to determine the compounds in the sample.

Data set [3] deals with Human colon cancer cell line HT-29. Kind of data set: Determination of the activity of inhibiting cell proliferation (Cell Counting Kit-8). As to conditions: HT-29, 96 h, HT29, 2,000 cells/well, incubated four days, read-out: Cell proliferation inhibitory activity (HT29) IC50. Type of data set: cell-based. Here is the method:
Human colon cancer cell line HT-29, obtained from American Type Culture Collection (VA, USA), and human non-small cell lung cancer cell line QG56, obtained from Immuno-Biological Laboratories Co., Ltd., were plated at 2,000 cells/well in a 96-well culture plate, and incubated for four days after addition of a MEK inhibitor of a given concentration.
(In general: Tetrazolium dyes change colour on reduction, which living cells bring about.)

The conditions of data set [4]: phase I clinical trials; cited from earlier work.
Data set [5] can be described thus: Determination of water solubility (equilibrium stirring method). Type of data set: physicochemical. Particulars: 50 mM phosphate buffer pH 6.5, room temperature (20 C); for solubility at 2 h: aqueous buffer, thermodynamic from solid, read-out: Water solubility (LySA PH 6.5). Here is the method: The vessels were sealed, and the contents were sonicated at room temperature (20° C.) for ten minutes, and then stirred with a stirrer for two hours. After reaching solution equilibrium, the solution was separated with a membrane filter, and the solute concentration was determined using HPLC.

A further data set has as its target MEK (Homo sapiens, UniProt Q02750). Put plainly: Determination of MEK inhibitory activities (Raf-1 kinase cascade assay, MBP phosphorylation, 33P-ATP).

The structures appear in SMILES notation. pIC50: −log10 of the molar value. Converted amounts (≈) assume the structure as drawn.

Sequence of MEK (Q02750 whole entry): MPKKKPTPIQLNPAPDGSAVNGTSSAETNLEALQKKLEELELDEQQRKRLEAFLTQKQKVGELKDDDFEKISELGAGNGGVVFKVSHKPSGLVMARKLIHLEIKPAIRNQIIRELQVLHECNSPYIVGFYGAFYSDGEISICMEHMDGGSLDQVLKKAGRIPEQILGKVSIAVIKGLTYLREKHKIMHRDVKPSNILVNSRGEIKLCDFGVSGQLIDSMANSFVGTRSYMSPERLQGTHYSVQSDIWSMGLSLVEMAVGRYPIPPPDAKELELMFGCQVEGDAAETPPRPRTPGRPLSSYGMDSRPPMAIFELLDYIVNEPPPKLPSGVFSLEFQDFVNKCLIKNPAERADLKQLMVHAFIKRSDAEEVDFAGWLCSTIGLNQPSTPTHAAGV
From the text for MEK: The radioisotope used was [γ^33P]-ATP (Amersham Biosciences, K.K.).

Take `O=C(NOCC1CC1)c1ccc(F)c(F)c1Nc1ccc(I)cc1Cl` [CI-1040, reference compound]: the half-life in data set [1] amounted to 0.482 h. For the same molecule, the half-life in data set [2] is 0.18 h. For the same molecule, the pIC50 in data set [3] was 7.00. Further, in data set [4], the “differences in pharmacokinetic parameters between patients” value is “large differences” and the in vivo inactivation entry is listed as “quick in vivo inactivation by hydrolysis”.

As usually defined, the solubility is the concentration that dissolves in the medium under given conditions. With `O=C(NOCCO)c1cc(/C=N/OCCN2CCNC2=O)c(F)c(F)c1Nc1ccc(I)cc1F` [Compound 27, (E)-3,4-difluoro-2-(2-fluoro-4-iodo-phenylamino)-N-(2-hydroxy-ethoxy)-5-{[2-(2-oxo-imidazolidin-1-yl)-ethoxyimino]-methyl}-benzamide], the half-life in data set [1] was 2.41 h; in data set [2], more than 6 h. Also, the pIC50 is 7.16 in data set [3] and 6.69 against MEK. In data set [5], the solubility at 2 h was 10 µM (≈ 6.07 µg/mL).

For `O=C(NOCCO)c1cc(/C=N/OCc2ncc[nH]2)c(F)c(F)c1Nc1ccc(I)cc1F` [Compound 28, (E)-3,4-difluoro-2-(2-fluoro-4-iodo-phenylamino)-N-(2-hydroxy-ethoxy)-5-[(1H-imidazol-2-ylmethoxyimino)-methyl]-benzamide], the half-life in data set [1] and in data set [2] was more than 6 h in each case. The values for the pIC50 (in data set [3]; against MEK) were 7.30 and 7.70, respectively. In data set [5], the solubility at 2 h is less than 31.3 µM.

In the case of `C#Cc1ccc(Nc2c(C(=O)NOCCO)cc(/C=N/OCCC(=O)NC)c(F)c2F)c(F)c1` [Compound 41, (E)-2-(4-ethynyl-2-fluoro-phenylamino)-3,4-difluoro-N-(2-hydroxy-ethoxy)-5-[(2-methylcarbamoyl-ethoxyimino)-methyl]-benzamide], the half-life is more than 6 h in data set [1] and 3.54 h in data set [2]. Also, the pIC50 in data set [3] was 6.73; on MEK, 7.19. Besides, the solubility at 2 h in data set [5] is 347 µM (≈ 166 µg/mL).

With `CN(C)C(=O)CCO/N=C/c1cc(C(=O)NOCCO)c(Nc2ccc(I)cc2F)c(F)c1F` [Compound 42, (E)-3,4-difluoro-2-(2-fluoro-4-iodo-phenylamino)-N-(2-hydroxy-ethoxy)-5-[dimethylcarbamoylethoxyimino-methyl]-benzamide], the figures for the half-life in data set [1] and in data set [2] were 1.74 h and more than 6 h, respectively. The pIC50 in data set [3] is 7.04; on MEK it was 7.25. The solubility at 2 h in data set [5] stood at 29 µM (≈ 17.2 µg/mL).

In the case of `CNC(=O)CO/N=C/c1cc(C(=O)NOCCO)c(Nc2ccc(I)cc2F)c(F)c1F` [Compound 43, (E)-3,4-difluoro-2-(2-fluoro-4-iodo-phenylamino)-N-(2-hydroxy-ethoxy)-5-[methylcarbamoylmethoxyimino-methyl]-benzamide], the half-life in data set [1] and in data set [2] was more than 6 h in each case. For the same molecule, the figures for the pIC50 (in data set [3]; at MEK) were 7.11 and 6.92, respectively. Besides, the solubility at 2 h in data set [5] was determined as 57 µM (≈ 32.3 µg/mL).

Regarding `CNC(=O)CCCO/N=C/c1cc(C(=O)NOCCO)c(Nc2ccc(I)cc2F)c(F)c1F` [Compound 44], the half-life in data set [1] and in data set [2] was more than 6 h in each case. The pIC50 in data set [3] was 6.48; against MEK, 7.60. In addition, the solubility at 2 h in data set [5] stood at 6 µM (≈ 3.57 µg/mL).

In the case of `O=C(CO/N=C/c1cc(C(=O)NOCCO)c(Nc2ccc(I)cc2F)c(F)c1F)NCCO` [Compound 45, (E)-3,4-difluoro-2-(2-fluoro-4-iodo-phenylamino)-N-(2-hydroxy-ethoxy)-5-{[(2-hydroxyethylcarbamoyl)-methoxyimino]-methyl}-benzamide], the half-life in data set [1] was more than 6 h; in data set [2], 2.15 h. Also, the figures for the pIC50 (in data set [3]; on MEK) were 6.71 and 6.57, respectively. For the same molecule, the solubility at 2 h in data set [5] came to 73 µM (≈ 43.5 µg/mL).

For the molecule `CS(=O)(=O)NCCO/N=C/c1cc(C(=O)NOCCO)c(Nc2ccc(I)cc2F)c(F)c1F` [Compound 47, (E)-3,4-difluoro-2-(2-fluoro-4-iodo-phenylamino)-N-(2-hydroxy-ethoxy)-5-[(2-methanesulfonylamino-ethoxyimino)-methyl]-benzamide], the half-life in data set [1] and in data set [2] was more than 6 h in each case. Also, the pIC50 is 6.86 in data set [3] and 6.68 against MEK. In data set [5], the solubility at 2 h amounted to 11 µM (≈ 6.78 µg/mL).

`C#Cc1ccc(Nc2c(C(=O)NOCCO)cc(/C=N\OCCO)c(F)c2F)c(F)c1` [Compound 48, (Z)-2-(4-ethynyl-2-fluoro-phenylamino)-3,4-difluoro-N-(2-hydroxy-ethoxy)-5-[(2-hydroxy-ethoxyimino)-methyl]-benzamide]: the half-life in data set [1] amounted to 0.603 h; in data set [2], 2.03 h. Also, the pIC50 was 7.89 in data set [3] and 7.29 on MEK. In addition, the solubility at 2 h in data set [5] came out at 301 µM (≈ 132 µg/mL).

In the case of `O=C(NOCCO)c1cc(/C=N\OCCO)c(F)c(F)c1Nc1ccc(I)cc1F` [Compound 49, (Z)-3,4-difluoro-2-(2-fluoro-4-iodo-phenylamino)-N-(2-hydroxy-ethoxy)-5-[(2-hydroxy-ethoxyimino)-methyl]-benzamide], the half-life in data set [1] and in data set [2] was more than 6 h in each case. Besides, the results for the pIC50 (in data set [3]; against MEK) were 8.32 and 7.51, respectively. Moreover, in data set [5], the “Water solubility (LySA PH 6.5)” value was 75 µM.

For the molecule `O=C(NOCCO)c1cc(/C=N\OCC(O)CO)c(F)c(F)c1Nc1ccc(I)cc1F` (stereo not drawn) [Compound 52, (dl)-(Z)-5-[(2,3-Dihydroxy-propoxyimino)-methyl]-3,4-difluoro-2-(2-fluoro-4-iodo-phenylamino)-N-(2-hydroxy-ethoxy)-benzamide], the half-life in data set [1] and in data set [2] was more than 6 h each time. In addition, the pIC50 is 8.24 in data set [3] and 7.82 against MEK. Moreover, the solubility at 2 h in data set [5] was determined as 175 µM (≈ 99.6 µg/mL).

Turning to `CC(=O)NCCO/N=C\c1cc(C(=O)NOCCO)c(Nc2ccc(I)cc2F)c(F)c1F` [Compound 54, (Z)-5-[(2-Acetylamino-ethoxyimino)-methyl]-3,4-difluoro-2-(2-fluoro-4-iodo-phenylamino)-N-(2-hydroxy-ethoxy)-benzamide], the half-life in data set [1] and in data set [2] was more than 6 h in each case. For the same molecule, the pIC50 is 8.19 in data set [3] and 7.68 against MEK. The solubility at 2 h in data set [5] came out at 20 µM (≈ 11.6 µg/mL).

With `CNC(=O)CCCO/N=C\c1cc(C(=O)NOCCO)c(Nc2ccc(I)cc2F)c(F)c1F` [Compound 55], the half-life in data set [1] is 1.62 h; in data set [2], more than 6 h. The values for the pIC50 (in data set [3]; at MEK) were 8.34 and 7.43, respectively. The solubility at 2 h in data set [5] was 12 µM (≈ 7.13 µg/mL).

For `CNC(=O)CO/N=C\c1cc(C(=O)NOCCO)c(Nc2ccc(I)cc2F)c(F)c1F` [Compound 56, (Z)-3,4-Difluoro-2-(2-fluoro-4-iodo-phenylamino)-N-(2-hydroxy-ethoxy)-5-(methylcarbamoylmethoxyimino-methyl)-benzamide], the results for the half-life in data set [1] and in data set [2] were more than 6 h and 0.645 h, respectively. Besides, the pIC50 was 8.47 in data set [3] and 7.31 against MEK. For the same molecule, the solubility at 2 h in data set [5] turned out to be 85 µM (≈ 48.1 µg/mL).

`O=C(CO/N=C\c1cc(C(=O)NOCCO)c(Nc2ccc(I)cc2F)c(F)c1F)NCCO` [Compound 57, (Z)-3,4-Difluoro-2-(2-fluoro-4-iodo-phenylamino)-N-(2-hydroxy-ethoxy)-5-{[(2-hydroxyethylcarbamoyl)-methoxyimino]-methyl}-benzamide]: the half-life in data set [1] and in data set [2] was more than 6 h throughout. Moreover, the pIC50 in data set [3] is 7.57; on MEK, 7.72. For the same molecule, the solubility at 2 h in data set [5] amounted to 224 µM (≈ 134 µg/mL).
